Assay results from publication PMC3914206.

Experiments:
Type in all cases: binding
Settings in all cases: Compound Concentration 10 µM
panel of 442 kinases [1] = target: T1, panel of 442 kinases (Homo sapiens, UniProt P07949, M918T)
T1 construct: purchased KINOMEscan
Source text: (§1) We assessed the selectivity of members of this scaffold using the KINOMEscan methodology across a near comprehensive panel of 442 kinases [[18,27]].

panel of 442 kinases [2] = target: T2, panel of 442 kinases (Homo sapiens, UniProt P22607)
T2 construct: purchased KINOMEscan
T2 sequence (P22607 23-806): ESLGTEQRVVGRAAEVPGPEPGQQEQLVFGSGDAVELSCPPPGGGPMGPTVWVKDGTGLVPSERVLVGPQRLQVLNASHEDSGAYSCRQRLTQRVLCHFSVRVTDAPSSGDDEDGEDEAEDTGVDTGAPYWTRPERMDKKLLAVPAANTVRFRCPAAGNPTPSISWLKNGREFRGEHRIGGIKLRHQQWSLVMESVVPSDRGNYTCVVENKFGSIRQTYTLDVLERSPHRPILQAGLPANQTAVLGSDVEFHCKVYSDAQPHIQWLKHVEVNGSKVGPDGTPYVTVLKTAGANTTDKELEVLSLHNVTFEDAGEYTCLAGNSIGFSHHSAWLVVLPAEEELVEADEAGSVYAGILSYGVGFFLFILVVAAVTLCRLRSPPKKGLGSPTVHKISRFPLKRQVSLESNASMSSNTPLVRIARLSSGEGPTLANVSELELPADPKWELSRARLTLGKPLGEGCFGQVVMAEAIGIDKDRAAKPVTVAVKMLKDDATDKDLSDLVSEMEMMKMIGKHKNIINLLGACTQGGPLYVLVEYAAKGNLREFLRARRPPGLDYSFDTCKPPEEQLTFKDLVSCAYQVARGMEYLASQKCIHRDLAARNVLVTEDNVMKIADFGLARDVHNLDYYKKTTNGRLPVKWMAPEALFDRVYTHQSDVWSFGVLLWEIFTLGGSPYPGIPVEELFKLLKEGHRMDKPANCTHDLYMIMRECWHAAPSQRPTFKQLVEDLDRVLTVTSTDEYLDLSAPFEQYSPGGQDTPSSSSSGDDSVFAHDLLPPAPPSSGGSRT
Source text: as §1

panel of 442 kinases [3] = target: T3, panel of 442 kinases (Homo sapiens, UniProt P57058)
T3 construct: purchased KINOMEscan
T3 sequence (P57058 1-714): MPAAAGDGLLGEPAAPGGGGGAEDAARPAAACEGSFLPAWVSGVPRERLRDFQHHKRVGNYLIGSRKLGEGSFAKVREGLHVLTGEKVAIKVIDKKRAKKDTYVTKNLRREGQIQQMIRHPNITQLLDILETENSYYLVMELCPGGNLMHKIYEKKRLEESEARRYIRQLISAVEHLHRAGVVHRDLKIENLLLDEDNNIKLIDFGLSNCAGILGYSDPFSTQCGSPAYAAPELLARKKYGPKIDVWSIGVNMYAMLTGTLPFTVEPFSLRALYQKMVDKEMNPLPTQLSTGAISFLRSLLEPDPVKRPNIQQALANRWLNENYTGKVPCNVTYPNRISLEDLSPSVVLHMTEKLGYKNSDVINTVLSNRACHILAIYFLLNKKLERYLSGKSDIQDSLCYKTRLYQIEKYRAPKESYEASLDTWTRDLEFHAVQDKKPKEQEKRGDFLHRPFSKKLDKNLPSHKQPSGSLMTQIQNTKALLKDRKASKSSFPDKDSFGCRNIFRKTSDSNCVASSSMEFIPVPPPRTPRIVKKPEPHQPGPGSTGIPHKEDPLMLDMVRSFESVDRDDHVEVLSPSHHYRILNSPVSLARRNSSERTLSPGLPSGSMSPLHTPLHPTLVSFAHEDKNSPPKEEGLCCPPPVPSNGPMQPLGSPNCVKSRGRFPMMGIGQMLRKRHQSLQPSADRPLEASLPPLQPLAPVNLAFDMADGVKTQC
Source text: as §1

T1 sequence (P07949 29-1114 M918T): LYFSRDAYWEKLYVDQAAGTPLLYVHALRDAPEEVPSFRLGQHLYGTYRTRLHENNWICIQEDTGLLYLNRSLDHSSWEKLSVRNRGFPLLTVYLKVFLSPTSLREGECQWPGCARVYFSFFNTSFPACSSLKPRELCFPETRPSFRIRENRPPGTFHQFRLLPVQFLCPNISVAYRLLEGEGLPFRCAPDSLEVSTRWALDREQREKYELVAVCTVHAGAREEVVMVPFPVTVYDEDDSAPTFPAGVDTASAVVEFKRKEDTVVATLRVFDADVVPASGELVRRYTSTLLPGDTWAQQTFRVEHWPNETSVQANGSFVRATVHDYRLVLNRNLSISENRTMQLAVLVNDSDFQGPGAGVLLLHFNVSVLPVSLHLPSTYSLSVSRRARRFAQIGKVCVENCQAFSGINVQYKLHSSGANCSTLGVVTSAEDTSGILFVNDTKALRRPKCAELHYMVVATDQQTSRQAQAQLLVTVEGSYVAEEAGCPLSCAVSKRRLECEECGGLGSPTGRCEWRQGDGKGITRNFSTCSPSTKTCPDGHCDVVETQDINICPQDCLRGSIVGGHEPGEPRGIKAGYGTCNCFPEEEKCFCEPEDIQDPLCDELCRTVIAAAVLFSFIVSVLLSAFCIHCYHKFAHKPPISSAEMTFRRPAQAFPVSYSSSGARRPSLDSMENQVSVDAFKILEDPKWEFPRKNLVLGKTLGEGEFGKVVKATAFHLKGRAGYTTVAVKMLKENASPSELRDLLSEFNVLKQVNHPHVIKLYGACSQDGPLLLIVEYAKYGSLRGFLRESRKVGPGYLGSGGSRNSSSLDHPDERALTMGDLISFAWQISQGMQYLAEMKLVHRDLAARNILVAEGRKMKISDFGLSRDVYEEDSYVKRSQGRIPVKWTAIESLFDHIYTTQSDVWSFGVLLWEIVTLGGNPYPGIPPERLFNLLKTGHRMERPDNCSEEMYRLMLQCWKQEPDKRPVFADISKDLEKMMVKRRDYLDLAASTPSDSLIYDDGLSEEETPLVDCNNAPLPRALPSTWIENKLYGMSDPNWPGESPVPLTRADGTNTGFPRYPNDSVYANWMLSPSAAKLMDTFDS

| Compound | KINOMEscan: RET(M918T) (panel of 442 kinases [1]) | KINOMEscan: FGFR3 (panel of 442 kinases [2]) | KINOMEscan: HUNK (panel of 442 kinases [3]) |
| --- | --- | --- | --- |
| CCOc1cc(C(=O)N2CCC(N3CCN(C)CC3)CC2)ccc1Nc1ncc2c(n1)N(C1CCCC1)c1ccccc1C(=O)N2C [Compound 26] | 100 | 100 | 53 |
| COc1cc(C(=O)N2CCC(N3CCN(C)CC3)CC2)ccc1Nc1ncc2c(n1)N1CCc3cccc(c31)C(=O)N2C [Compound 24] | 81 | 80 | – |
| COc1cc(C(=O)N2CCC(N3CCN(C)CC3)CC2)ccc1Nc1ncc2c(n1)N(C)c1ccccc1C(=O)N2C [15 (LRRK2-IN-1)] | 100 | 80 | 100 |
| COc1cc(C(=O)N2CCC(N3CCN(C)CC3)CC2)ccc1Nc1ncc2c(n1)N(C1CCCC1)c1ccccc1C(=O)N2C [Compound 25, 11-cyclopentyl-2-((2-methoxy-4-(4-(4-methylpiperazin-1-yl)piperidine-1-carbonyl)phenyl)amino)-5-methyl-5H-benzo[e]pyrimido[5,4-b][1,4]diazepin-6(11H)-one] | 94 | 88 | 100 |
